PMC6017121, “New Thiazoline-Tetralin Derivatives and Biological Activity Evaluation” (Molecules : A Journal of Synthetic Chemistry and Natural …, 2018)

Columns and labels:
A549 cells [1] = assay: DNA synthesis inhibition (BrdU) on A549; details: Homo sapiens, A549, 4 h, read-out: DNA synthesis inhibition on A549 at IC50, IC50 concentration (4h 48.6 μM; cisplatin 108.3 μM)
Protocol: The 5-bromo-2′-deoxy-uridine (BrdU) cell proliferation assay [48] was used to detect the proliferation of A549 and C6 cells. […] At the end of each day, the cells were labelled with 10 mL BrdU solution for 2 h and then fixed. Anti-BrdU-POD (100 mL) was added and incubated for 90 min. Finally, microtiter plates were washed with phosphate buffered saline (PBS) three times and the cells were incubated with substrate solution until the color was sufficient for photometric detection. […] The growth percentage was evaluated spectrophotometrically versus untreated controls with used cell viability of growth assay. Results for each spectrophotometrical measure were noticed as percent of growth inhibition. All experiments were done in triplicates.
Mean percent absorbance of untreated control cells were assumed 0%. […] Data points represent means for three independent wells ± SD. p < 0.05.

[2] = system: human lung carcinoma cell line (A549); assay: MTT cytotoxicity assay on A549; format: cell-based
Protocol: (§1) This is a colorimetric assay that measures the reduction of 3-(4,5-dimethylthiazol-2-yl)-2,4,diphenyltetrazolium bromide (MTT) by mitochondria. All final compounds were tested against human breast adenocarcinoma cell line (MCF-7), human lung carcinoma cell line (A549) and mouse embryooblast cell line (NIH/3T3) to determine their cytotoxic profile. Cancer cells were cultured in RPMI medium (Hyclone, Thermo Scientific, Waltham, MA, USA) at 37 °C in a humidified atmosphere of 95% air and 5% CO2. The studied cells were situated at 2 × 10^4 cells into each well of 96-well microtiter tissue culture plates (Nunc, Denmark) and incubated for 24 h. After that, test compounds were dissolved in DMSO and added to culture wells at varying concentrations (85–1000 µM). After a 24 h incubating period, […] MTT solution (5 mg/mL MTT powder in PBS) was added to each well and the cells were incubated for 4 h at 37 °C. The purple formazan crystals produced were dissolved in DMSO and the absorbance was read by ELISA reader (OD570 nm). The percent values of cell proliferations were calculated relative to controls, whose cell proliferations were accepted as 100% [47].

[3] = target: acetylcholinesterase (AChE) (Homo sapiens, UniProt P22303); assay: biochemical; details: 80 µg/mL (~160 µM)
acetylcholinesterase (AChE), sequence (P22303 32-614, species assumed): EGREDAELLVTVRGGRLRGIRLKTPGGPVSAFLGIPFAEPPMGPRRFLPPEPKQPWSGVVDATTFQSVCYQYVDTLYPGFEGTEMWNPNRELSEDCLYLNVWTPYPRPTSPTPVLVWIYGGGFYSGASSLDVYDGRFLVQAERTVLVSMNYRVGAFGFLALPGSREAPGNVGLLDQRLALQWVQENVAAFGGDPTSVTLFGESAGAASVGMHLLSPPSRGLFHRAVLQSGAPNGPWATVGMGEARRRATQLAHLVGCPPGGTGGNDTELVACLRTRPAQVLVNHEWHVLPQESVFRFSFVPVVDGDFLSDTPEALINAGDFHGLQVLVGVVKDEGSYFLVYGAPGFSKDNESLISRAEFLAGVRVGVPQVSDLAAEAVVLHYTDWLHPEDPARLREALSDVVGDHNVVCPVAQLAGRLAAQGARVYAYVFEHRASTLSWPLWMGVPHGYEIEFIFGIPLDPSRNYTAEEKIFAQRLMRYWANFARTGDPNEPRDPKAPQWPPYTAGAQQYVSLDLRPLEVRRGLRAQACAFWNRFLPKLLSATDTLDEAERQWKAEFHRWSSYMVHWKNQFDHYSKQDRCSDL
Protocol: (§2) In order to determine the acetyl- and butyrylcholinesterase enzyme inhibitions, experiments were carried out by making some changes in the method developed by Ellman. Samples were prepared by dissolving in the appropriate solvent. Adding 20 μL enzyme solution (AChE or BuChE, 1 U/mL) and 10 μL sample solution to 2.4 mL buffer solution and it was incubated for 15 min at 37 °C. After incubation, 50 μL DTNB and 75 mM ATCI solution or 20 μL of 25 mM BTCI solution were added and allowed the mixture to incubate at room temperature for 30 min. For the control group, only 10 μL of solvent was added instead of the sample solution provided all protocols are the same. […] Experiments were run in triplicate. The inhibition fractions of AChE […] BuChE enzymes were calculated using the following equation:I(%) = 100 − ([…]) × 100

[4] = target: butyrylcholinesterase (BuChE) (Homo sapiens, UniProt P06276); assay: biochemical; details: 80 µg/mL (~160 µM)
butyrylcholinesterase (BuChE), sequence (P06276 29-602): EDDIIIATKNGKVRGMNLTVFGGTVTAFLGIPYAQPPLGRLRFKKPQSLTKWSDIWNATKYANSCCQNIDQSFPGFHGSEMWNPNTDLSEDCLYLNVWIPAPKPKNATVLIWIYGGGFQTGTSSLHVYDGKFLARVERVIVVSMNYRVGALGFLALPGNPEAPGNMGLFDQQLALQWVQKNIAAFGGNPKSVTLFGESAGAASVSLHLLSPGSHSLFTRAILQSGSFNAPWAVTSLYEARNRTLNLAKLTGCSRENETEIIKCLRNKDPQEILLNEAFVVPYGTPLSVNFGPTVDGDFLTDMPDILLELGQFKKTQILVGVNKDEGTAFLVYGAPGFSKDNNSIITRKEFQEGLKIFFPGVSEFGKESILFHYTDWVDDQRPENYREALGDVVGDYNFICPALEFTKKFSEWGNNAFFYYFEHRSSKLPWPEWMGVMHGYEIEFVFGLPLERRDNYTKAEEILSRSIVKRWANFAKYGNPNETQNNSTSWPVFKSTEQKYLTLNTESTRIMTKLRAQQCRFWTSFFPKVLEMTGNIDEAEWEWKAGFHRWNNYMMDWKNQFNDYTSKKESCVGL
Protocol: as §2

[5] = system: mouse embryoblast cell line (NIH/3T3); assay: MTT cytotoxicity assay on NIH/3T3 (healthy cells); format: cell-based; details: NIH3T3, 24 h incubation
Protocol: as §1

A549 cells [6] = assay: Annexin V-FITC/propidium iodide flow cytometry on A549; format: cell-based, human; details: A549 cell line, IC50 concentration
Protocol: Evaluation of apoptosis was carried out through the Annexin V-FITC Apoptosis Detection Kit from BD, Pharmingen, according to the manufacturer’s instruction. […] Then cells were rinsed with cold water twice and resuspended in Annexin V-FITC binding buffer at a concentration of 1 × 10^6 cells/mL. […] of Annexin V-FITC was used to stain the cells. After 15 min of incubation at 25 °C, the cell suspension was centrifugated for 5 min and cells were resuspended in Annexin V-FITC binding buffer. Propidium iodide ([…]) was added and the tubes were situated on ice and away from light. The fluorescence was measured using a flow cytometer. The results were analyzed by using FCSExpress software and represented as percentage of normal and apoptotic cells at various stages. […] The four areas in the diagrams stand for necrotic cells (Q1, positive for PI and negative for annexin/FITC, left square on the top), live cells (Q3, negative for annexin and PI, left square at the bottom), late apoptotic or necrotic cells (Q2, positive for annexin and PI, right square on the top) and apoptotic cells (Q4, negative for PI and positive for annexin, right square at the bottom), respectively. The experiment was repeated three times.

[7] = system: human breast adenocarcinoma cell line (MCF-7); assay: MTT cytotoxicity assay on MCF-7; format: cell-based
Protocol: as §1

Structure (SMILES): O=C(COc1ccc2c(c1)CCCC2)N/N=c1\scc(-c2ccc(F)cc2)n1-c1ccccc1 [Compound 4h, N′-[3-Phenyl-4-(4-florophenyl)thiazole-2(3H)-ylidene]-2-[(5,6,7,8-tetrahydronaphthalen-2-yl)oxy]acetohydrazide]
- inhibition at 48.6 µM (A549 cells [1]): 50.8%
- IC50 ([2]; Homo sapiens, A549, MTT, 24 h incubation): 48.6 ± 6 µM
- SI A549 (selectivity index) ([2]; NIH/3T3 versus A549): 5.1
- inhibition at 160 µM [3]: 49.9 ± 1.44%
- inhibition at 80 µg/mL [4]: < 0%
- IC50 [5]: 247 ± 12.2 µM
- apoptosis (early + late apoptotic cell percentage) A549 (A549 cells [6]): over 50%
- % Early Apoptotic (A549 cells [6]; 24 h): 23.7%
- % Late Apoptotic (A549 cells [6]; 24 h): 26.4%
- % Necrotic (A549 cells [6]; 24 h): 4.0%
- % Viable (A549 cells [6]; 24 h): 45.9%
- IC50 ([7]; Homo sapiens, MCF7, MTT, 24 h incubation): 243 ± 14.9 µM
- SI MCF-7 (selectivity index) ([7]; NIH/3T3 versus MCF-7): 1.0
